“Also recorded” adds a separate entry of the source. Read-outs that look alike come from different tables or passages of the source.
Assays:
[1] = system: neurons from hippocampi of E18 rat embryos; assay: Neurite growth length (% NTL) in cultured E18 rat hippocampal neurons, 9-point dose response, 48 hours; format: cell-based; details: for activity at 0.078 µM / activity at 0.156 µM / activity at 0.312 µM / activity at 0.625 µM / activity at 1.25 µM / activity at 2.5 µM / activity at 5 µM / activity at 10 µM / activity at 20 µM: Rattus norvegicus, Neuron, 48 h
Summary of the method: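 % NTL comes from automated neurite tracing of βIII-tubulin-stained cells, with 200–300 or more neurons per condition. Compounds were given in a 9-point dilution series (20 μM to 0.078125 μM) for 48 h. Cells were trypsin-dissociated E18 rat hippocampal neurons plated at 1500/well on poly-D-lysine.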

[2] = system: Primary Neurons; assay: HCS neurite outgrowth assay (High Content Screening with Primary Neurons); format: cell-based
[3] = system: corticospinal tract (CST) axons; assay: Unilateral pyramidotomy model, in vivo axon growth (CST axon sprouting); details: mice, cortical injection, 2 mM final concentration, 5 weeks after unilateral pyramidotomy, N=2
From the text: B) Graph represents averages of sprouting axon index across two animals treated with indicated compounds. Error bars indicate range of data points. N=2 animals (mice).
To assess the role of the compounds described herein in axon growth in vivo, the unilateral pyramidotomy model was employed, in which the pyramid in the ventral brainstem was severed unilaterally, rostral to the decussation of corticospinal tract (CST) axons. The animals then received bilateral cortical injections of a compound described herein (or DMSO) mixed 1:1 with AAV8-UbC-GFP or AAV8-UbC-TdTomato (5×10^13 GC/mL) for a final concentration of 2 mM (2 animals (mice) for each condition). […] Axon growth in the cervical spinal cord was assessed after 5 weeks. Cervical sections of the spinal cord were stained with antibodies against PKCγ (to assess completeness of lesion), and GFP (to amplify the signal from the virus). For analyses, GFP+ axons sprouting into the denervated gray matter were counted at 0, 500, 1000 μm lateral to the central canal, and normalized to the number of GFP+ fibers at the level of the brainstem (sprouting axon index).

Compound	activity at 0.078 µM ([1]; 78 nM)	activity at 0.156 µM ([1]; 156 nM)	activity at 0.312 µM ([1]; 312 nM)	activity at 0.625 µM ([1]; 625 nM)	activity at 1.25 µM ([1]; 1.25 μM)	activity at 2.5 µM ([1]; 2.5 μM)	activity at 5 µM ([1]; 5 μM)	activity at 10 µM ([1]; 10 μM)	EC50 ([2]; Primary neuron)	activity at 20 µM ([1]; 20 μM)	other results
Cc1cccc(C(=O)c2ccc(C(=O)N[C@@H]3CNC[C@H]3NC(=O)c3ccnc(N)n3)cc2)c1O [Example A74, 2-amino-N-[(3R,4R)-4-[4-(2-hydroxy-3-methylbenzoyl)benzamido]pyrrolidin-3-yl]pyrimidine-4-carboxamide]	101%	103%	103%	106%	105%	119%	121%	137%	4.5 µM	–	–
Cc1cccc(C(=O)c2ccc(C(=O)N[C@@H]3CNC[C@H]3NC(=O)c3ccncc3)cc2)c1O [Example A75, N-[(3R,4R)-4-[4-(2-hydroxy-3-methylbenzoyl)benzamido]pyrrolidin-3-yl]pyridine-4-carboxamide]	97.1%	93.7%	105%	106%	116%	119%	119%	146%	6.57 µM	140%	–
COc1ccc(O)c(C(=O)c2ccc(C(=O)N[C@@H]3CNC[C@H]3NC(=O)c3ccnc(N)n3)cc2)c1 [Example A76, 2-amino-N-[(3R,4R)-4-[4-(2-hydroxy-5-methoxybenzoyl)benzamido]pyrrolidin-3-yl]pyrimidine-4-carboxamide]	131%	121%	140%	156%	169%	207%	317%	558%	8.37 µM	692%	–
COc1ccc(O)c(C(=O)c2ccc(C(=O)N[C@@H]3CNC[C@H]3NC(=O)c3ccncc3)cc2)c1 [Example A77, N-[(3R,4R)-4-[4-(2-hydroxy-5-methoxybenzoyl)benzamido]pyrrolidin-3-yl]pyridine-4-carboxamide]	118%	125%	133%	144%	159%	187%	263%	469%	10.4 µM	653%	–
Cc1ccc(O)c(C(=O)c2ccc(C(=O)N[C@@H]3CNC[C@H]3NC(=O)c3ccncc3)cc2)c1 [Example A78, N-[(3R,4R)-4-[4-(2-hydroxy-5-methylbenzoyl)benzamido]pyrrolidin-3-yl]pyridine-4-carboxamide]	122%	121%	133%	143%	152%	176%	256%	410%	7.77 µM	503%	–
O=C(N[C@@H]1CNC[C@H]1NC(=O)c1ccc(C(=O)c2ccc(Cl)cc2O)cc1)c1ccncc1 [Example A79, N-[(3R,4R)-4-[4-(4-chloro-2-hydroxybenzoyl)benzamido]pyrrolidin-3-yl]pyridine-4-carboxamide]	116%	109%	117%	118%	111%	116%	112%	107%	> 20 µM	94.7%	–
Cc1ccc(C(=O)c2ccc(C(=O)N[C@@H]3CNC[C@H]3NC(=O)c3ccnc(N)n3)cc2)c(O)c1 [Example A80, 2-amino-N-[(3R,4R)-4-[4-(2-hydroxy-4-methylbenzoyl)benzamido]pyrrolidin-3-yl]pyrimidine-4-carboxamide]	125%	124%	141%	158%	178%	221%	203%	160%	0.534 µM	155%	–
Cc1ccc(C(=O)c2ccc(C(=O)N[C@@H]3CNC[C@H]3NC(=O)c3ccncc3)cc2)c(O)c1 [Example A81, N-[(3R,4R)-4-[4-(2-hydroxy-4-methylbenzoyl)benzamido]pyrrolidin-3-yl]pyridine-4-carboxamide]	124%	120%	127%	128%	128%	125%	130%	113%	5.22 µM	116%	–
COc1ccc(C(=O)c2ccc(C(=O)N[C@@H]3CNC[C@H]3NC(=O)c3ccnc(N)n3)cc2)c(O)c1 [Example A82, 2-amino-N-[(3R,4R)-4-[4-(2-hydroxy-4-methoxybenzoyl)benzamido]pyrrolidin-3-yl]pyrimidine-4-carboxamide]	107%	115%	117%	124%	122%	120%	120%	131%	0.154 µM	117%	–
COc1ccc(C(=O)c2ccc(C(=O)N[C@@H]3CNC[C@H]3NC(=O)c3ccncc3)cc2)c(O)c1 [Example A83, N-[(3R,4R)-4-[4-(2-hydroxy-4-methoxybenzoyl)benzamido]pyrrolidin-3-yl]pyridine-4-carboxamide]	106%	105%	110%	118%	124%	127%	127%	123%	0.486 µM	117%	–
Nc1nccc(C(=O)N[C@@H]2CNC[C@H]2NC(=O)c2ccc(C(=O)c3cc(Cl)ccc3O)cc2)n1 [Example A84, 2-amino-N-[(3R,4R)-4-[4-(5-chloro-2-hydroxybenzoyl)benzamido]pyrrolidin-3-yl]pyrimidine-4-carboxamide]	115%	118%	125%	139%	153%	165%	270%	492%	6.86 µM	564%	–
O=C(N[C@@H]1CNC[C@H]1NC(=O)c1ccc(C(=O)c2cc(Cl)ccc2O)cc1)c1ccncc1 [Example A85, N-[(3R,4R)-4-[4-(5-chloro-2-hydroxybenzoyl)benzamido]pyrrolidin-3-yl]pyridine-4-carboxamide]	134%	144%	140%	153%	177%	219%	376%	534%	3.82 µM	426%	–
O=C(N[C@@H]1CNC[C@H]1NC(=O)c1ccc(C(=O)c2ccccc2O)cc1)c1ccncc1 [Example A86, N-[(3R,4R)-4-[4-(2-hydroxybenzoyl)benzamido]pyrrolidin-3-yl]pyridine-4-carboxamide]	124%	135%	126%	134%	136%	158%	185%	271%	11.9 µM	379%	–
O=C(N[C@@H]1CNC[C@H]1NC(=O)c1ccc(C(=O)c2cc(Br)ccc2O)cc1)c1ccncc1 [Example A88, N-((3R,4R)-4-(4-(5-bromo-2-hydroxybenzoyl)benzamido)pyrrolidin-3-yl)isonicotinamide]	–	–	–	–	–	–	–	–	1.17 µM	–	CST axon sprouting (sprouting axon index) [3]: promotes CST axon sprouting in the spinal cord; also recorded: nearly a two-fold increase in sprouting
COc1ccc(O)c(C(=O)c2ccc(C(=O)O[C@@H]3CCCNC[C@H]3NC(=O)c3ccncc3)cc2)c1F [Example A92, (3R,4R)-3-(isonicotinamido)azepan-4-yl 4-(2-fluoro-6-hydroxy-3-methoxybenzoyl)benzoate, reference compound]	–	–	–	–	–	–	–	–	0.711 µM	–	CST axon sprouting (sprouting axon index) [3]: promotes CST axon sprouting in the spinal cord; also recorded: nearly a two-fold increase in sprouting
N[(3R,4R)-4-{4-[(2-fluoro-6-hydroxy-3- methoxyphenyl)methyl]benzamido}pyrrolidin- 3-yl]pyridine-4-carboxamide [Example A55]	–	–	–	–	–	–	–	–	–	–	neurite growth length (% NTL) ([1]; 78 nM): 85.02 % NTL; neurite growth length (% NTL) ([1]; 156 nM): 77.96 % NTL; neurite growth length (% NTL) ([1]; 312 nM): 80.06 % NTL; neurite growth length (% NTL) ([1]; 625 nM): 76.79 % NTL; neurite growth length (% NTL) ([1]; 1.25 μM): 81.96 % NTL; neurite growth length (% NTL) ([1]; 2.5 μM): 90.13 % NTL; neurite growth length (% NTL) ([1]; 5 μM): 93.58 % NTL; neurite growth length (% NTL) ([1]; 10 μM): 98.77 % NTL; neurite growth length (% NTL) ([1]; 20 μM): 96.04 % NTL; EC50 [2]: 4.74 µM

— US11926613B2, “Kinase inhibitors for the treatment of central and peripheral nervous system disorders” (UNIVERSITY OF MIAMI, priority 2017, dated 2024)
